From patent publication US4277465A, “Adjuvant for promoting absorption of therapeutically active substances through the digestive tract” (Kyoto Yakuhin Kogyo Kabushiki Kaisha, priority 1978, dated 1981)

Experiments:
[1] = Stability in aqueous solution (half-life of enamine derivatives); format: physicochemical; conditions: pH 7.4 phosphate buffer, μ 0.15, 25° C., UV absorption spectrometry; "stable" = enamine structure retained even after 6 hours
Protocol: To examine the stability in water of the enamine derivatives (I) obtained above, some representative compounds were selected and their half-lives [t 0.5 (min.)] in pH 7.4 phosphate buffer (μ: 0.15, temp.: 25° C.) were determined by ultraviolet absorption spectrometry. In the Table, "stable" means that the enamine structure was retained even after 6 hours.

[2] = Rectal suppositories of CET-Na with enamine derivative, concentration in blood; format: in vivo; conditions: dog
Protocol: These suppositories were rectally administered to dogs and the absorbabilities of the active components were investigated by measuring the blood concentrations.
(§1) The blood concentrations were measured in conformity with the biological assay method in the Antibiotic Standard of Japan. The cup method was employed with Sarcina lutea for penicillins and Bacillus subtilis for cephalosporins.

[3] = Rectal ointment of CET-Na with enamine derivative, blood concentration; format: in vivo, rabbit; conditions: CET; rectal ointment CET.Na 20%, enamine derivative 10%; dose 50 mg CET.Na/kg
Protocol: Cephalothin sodium (briefly CET-Na), a drug which is sparingly absorbed from the rectum, was selected for a test. Thus, CET-Na was dispersed in liquid paraffin-white vaseline base to prepare rectal ointment. The ointment was administered to rabbits by the rectal route. […] The blood concentration was measured in conformity with the biological assay method in the Antibiotic Standard of Japan. […]

[4] = Rectal suppositories of AB-PC-Na with enamine derivative, concentration in blood; format: in vivo; conditions: AB-PC-Na 75mg, dog
Protocol: as §1, with “These suppositories were rectally administered to dogs and the absorbabilities of the active components were investigated by measuring the blood concentrations. The blood” for “The blood”

[5] = Rectal insulin suppositories (Recipes 21-34), glucose response; format: in vivo; conditions: rectal suppository 6 I.U. insulin
Protocol: |Enamine derivative (I) | As indicated in | Table 12 […] The above components were used to prepare rectal suppositories in accordance with established pharmaceutical practice. The suppositories were administered to rabbits and dogs by rectal route. […] The test was conducted by the glucose oxidase method.

[6] = Rectal insulin suppositories (Recipes 35-41), glucose response; format: in vivo; conditions: rectal suppository 6 I.U. insulin, enamine derivative 0.025g (5%)
Text: These suppositories were rectally administered to rabbits (R, 2.5-3kg) and dogs (D, 12-13kg).

[7] = CET-Na 500mg, enamine derivative 150mg (10%), base Witepsol H-15 850mg
[8] = enamine derivative 120mg (10%), base SB-W 1005mg
[9] = CET-Na 75mg, enamine derivative 60mg (5%), base Witepsol H-15 1065mg
[10] = enamine derivative 60mg (5%), base Witepsol H-15 1065mg
[11] = CET-Na 75mg, enamine derivative 60mg (5%), base SB-W 1065mg
[12] = enamine derivative 120mg (10%), base Witepsol H-15 1005mg
[13] = CET-Na 75mg, enamine derivative 120mg (10%), base Witepsol H-15 1005mg

SMILES: CCOC(=O)C=C(C)NC(Cc1ccccc1)C(=O)[O-].[Na+] (racemic) [Compound 10, N-(1-Methyl-2-ethoxycarbonylvinyl)-DL-phenylalanine sodium salt]
- half-life t 0.5 [1]: 15.7 min
- Concentration in blood, 15 min. [2, 7]: 15.30 µg/mL
- Concentration in blood, 30 min. [2, 7]: 11.73 µg/mL
- Concentration in blood, 60 min. [2, 7]: 6.75 µg/mL
- Concentration in blood, 120 min. [2, 7]: 2.20 µg/mL

SMILES: CC(=O)C=C(C)N[C@@H](C(=O)[O-])c1ccccc1.[Na+] [Compound 4, N-(1-Methyl-2-acetylvinyl)-D-phenylglycine sodium salt]
- AUC [3]: 568 µg·min/mL
- Peak blood concentration [3]: 11.0 µg/mL
- half-life t 0.5 [1]: Stable

SMILES: CC(N[C@@H](C(=O)[O-])c1ccccc1)=C1CCOC1=O.[Na+] [Compound 6, N-[1-(Tetrahydro-2-furanone-3-ylidene)ethyl]-D-phenylglycine sodium salt]
- half-life t 0.5 [1]: 478 min

SMILES: CCCCOC(=O)C1=C(N[C@@H](C(=O)[O-])c2ccccc2)CCC1.[Na+] [Compound 7, N-(2-Butoxycarbonyl-1-cyclopenten-1-yl)-D-phenylglycine sodium salt]
- half-life t 0.5 [1]: Stable

SMILES: CCOC(=O)C=C(C)N[C@@H](C(=O)OC)c1ccccc1 [Compound 8, Methyl-N-(1-methyl-2-ethoxycarbonylvinyl)-D-phenylglycinate]
- AUC [3]: 49 µg·min/mL
- Peak blood concentration [3]: 3.8 µg/mL

SMILES: CCOC(=O)C=C(C)N[C@@H](CCC(=O)[O-])C(=O)[O-].[Na+].[Na+] [Compound 16, N-(1-Methyl-2-ethoxycarbonylvinyl)-L-glutamic acid sodium salt]
- half-life t 0.5 [1]: 16.3 min
- Concentration in blood, 15 min. [4, 8]: 0.69 µg/mL
- Concentration in blood, 30 min. [4, 8]: 0.48 µg/mL
- Concentration in blood, 60 min. [4, 8]: 0.52 µg/mL
- Concentration in blood, 120 min. [4, 8]: 0.29 µg/mL

SMILES: CCOC(=O)C=C(C)N[C@H](C(=O)[O-])[C@@H](C)CC.[Na+] [Compound 20, N-(1-Methyl-2-ethoxycarbonylvinyl)-L-isoleucine sodium salt]
- Concentration in blood, 15 min. [2, 7]: 9.00 µg/mL
- Concentration in blood, 30 min. [2, 7]: 6.23 µg/mL
- Concentration in blood, 60 min. [2, 7]: 2.91 µg/mL
- Concentration in blood, 120 min. [2, 7]: 1.00 µg/mL
- Blood glucose response (6 I.U.) ([5]; dog, enamine derivative 2%): 25-35%
- Time course: Lowest level ([5]; dog, enamine derivative 2%): 120 min
- Time course: Onset ([5]; dog, enamine derivative 2%): 60 to 90 min
- Time course: Return to pre-medication level ([5]; dog, enamine derivative 2%): 180 to 240 min

SMILES: CCOC(=O)C=C(C)N[C@H](C(=O)[O-])[C@@H](C)O.[Na+] [Compound 22, N-(1-Methyl-2-ethoxycarbonylvinyl)-L-threonine sodium salt]
- Concentration in blood, 15 min. [2, 9]: 0.75 µg/mL
- Concentration in blood, 30 min. [2, 9]: 0.57 µg/mL
- Concentration in blood, 60 min. [2, 9]: 0.31 µg/mL
- Time course: Lowest level ([5]; rabbit, enamine derivative 5%): 45 to 75 min
- Time course: Onset ([5]; rabbit, enamine derivative 5%): 30 min
- Time course: Return to pre-medication level ([5]; rabbit, enamine derivative 5%): 180 min

SMILES: CCOC(=O)C=C(C)N[C@@H](CCSC)C(=O)[O-].[Na+] [Compound 23, N-(1-Methyl-2-ethoxycarbonylvinyl)-L-methionine sodium salt]
- Concentration in blood, 15 min. [4, 10]: 0.52 µg/mL
- Concentration in blood, 30 min. [4, 10]: 0.34 µg/mL
- Concentration in blood, 60 min. [4, 10]: 0.18 µg/mL
- Concentration in blood, 120 min. [4, 10]: 0.08 µg/mL
- Time course: Lowest level ([5]; rabbit, enamine derivative 10%): 60 to 90 min
- Time course: Onset ([5]; rabbit, enamine derivative 10%): 30 min
- Time course: Return to pre-medication level ([5]; rabbit, enamine derivative 10%): 180 min

SMILES: CCOC(=O)C=C(C)N[C@@H](Cc1c[nH]c2ccccc12)C(=O)[O-].[Na+] [Compound 27, α-N-(1-Methyl-2-ethoxycarbonylvinyl)-L-tryptophan sodium salt]
- Concentration in blood, 15 min. [4, 8]: 1.6 µg/mL
- Concentration in blood, 30 min. [4, 8]: 1.5 µg/mL
- Concentration in blood, 60 min. [4, 8]: 0.74 µg/mL
- Concentration in blood, 120 min. [4, 8]: 0.40 µg/mL
- Blood glucose response (6 I.U.) ([5]; rabbit, enamine derivative 10%): 30%
- Time course: Lowest level ([5]; rabbit, enamine derivative 10%): 60 to 90 min
- Time course: Onset ([5]; rabbit, enamine derivative 10%): 30 min
- Time course: Return to pre-medication level ([5]; rabbit, enamine derivative 10%): 180 min

SMILES: CCOC(=O)C=C(C)N[C@@H](CCCNC(=N)N)C(=O)O [Compound 29, α-N-(1-Methyl-2-ethoxycarbonylvinyl)-L-arginine]
- Concentration in blood, 15 min. [4, 8]: 0.50 µg/mL
- Concentration in blood, 30 min. [4, 8]: 0.53 µg/mL
- Concentration in blood, 60 min. [4, 8]: 0.61 µg/mL
- Concentration in blood, 120 min. [4, 8]: 0.41 µg/mL
- Blood glucose response (6 I.U.) ([5]; rabbit, enamine derivative 5%): 40-50%
- Time course: Lowest level ([5]; rabbit, enamine derivative 5%): 60 to 90 min
- Time course: Onset ([5]; rabbit, enamine derivative 5%): 15 min
- Time course: Return to pre-medication level ([5]; rabbit, enamine derivative 5%): 210 min

SMILES: CCOC(=O)C=C(C)N[C@@H](CO)C(=O)[O-].[Na+] [Compound 31, N-(1-Methyl-2-ethoxycarbonylvinyl)-L-serine sodium salt]
- Concentration in blood, 15 min. [4, 10]: 0.70 µg/mL
- Concentration in blood, 30 min. [4, 10]: 0.38 µg/mL
- Concentration in blood, 60 min. [4, 10]: 0.24 µg/mL
- Concentration in blood, 120 min. [4, 10]: 0.09 µg/mL
- Time course: Lowest level ([5]; rabbit, enamine derivative 10%): 60 to 90 min
- Time course: Onset ([5]; rabbit, enamine derivative 10%): 30 min
- Time course: Return to pre-medication level ([5]; rabbit, enamine derivative 10%): 180 min

SMILES: CCOC(=O)C(C)OC(=O)C=C(C)NCC(=O)[O-].[Na+] (stereo not shown) [Compound 32, N-[1-Methyl-2-(1-ethoxycarbonyl-ethoxycarbonyl)vinyl]glycine sodium salt]
- Blood glucose response (6 I.U.) ([6]; dog 12-13kg): 30-40%
- Time course: Lowest level ([6]; dog 12-13kg): 30 to 60 min
- Time course: Onset ([6]; dog 12-13kg): 30 min
- Time course: Return to pre-medication level ([6]; dog 12-13kg): 120 min
- Blood glucose response (6 I.U.) ([6]; rabbit 2.5-3kg): 45-55%
- Time course: Lowest level ([6]; rabbit 2.5-3kg): 45 to 60 min
- Time course: Onset ([6]; rabbit 2.5-3kg): 15 min
- Time course: Return to pre-medication level ([6]; rabbit 2.5-3kg): 150 min
- Concentration in blood, 15 min. [2, 11]: 1.50 µg/mL
- Concentration in blood, 30 min. [2, 11]: 1.12 µg/mL
- Concentration in blood, 60 min. [2, 11]: 0.73 µg/mL
- Concentration in blood, 120 min. [2, 11]: 0.40 µg/mL

SMILES: CCOC(=O)C(C)OC(=O)C=C(C)N[C@@H](Cc1ccccc1)C(=O)[O-].[Na+] (stereo partly drawn) [Compound 34, N-[1-Methyl-2-(1-ethoxycarbonyl-ethoxycarbonyl)vinyl]-L-phenylalanine sodium salt]
- Blood glucose response (6 I.U.) ([6]; rabbit 2.5-3kg): 45-55%
- Time course: Lowest level ([6]; rabbit 2.5-3kg): 45 to 60 min
- Time course: Onset ([6]; rabbit 2.5-3kg): 15 min
- Time course: Return to pre-medication level ([6]; rabbit 2.5-3kg): 150 min
- Concentration in blood, 15 min. [2, 9]: 1.25 µg/mL
- Concentration in blood, 30 min. [2, 9]: 0.83 µg/mL
- Concentration in blood, 60 min. [2, 9]: 0.61 µg/mL
- Concentration in blood, 120 min. [2, 9]: 0.39 µg/mL

SMILES: CC(=CC(=O)NCCO)N[C@@H](Cc1ccccc1)C(=O)[O-].[Na+] [Compound 36, N-[1-Methyl-2-(2-hydroxyethylcarbamoyl)vinyl]-L-phenylalanine sodium salt]
- Blood glucose response (6 I.U.) ([6]; rabbit 2.5-3kg): 20-30%
- Time course: Lowest level ([6]; rabbit 2.5-3kg): 30 to 60 min
- Time course: Onset ([6]; rabbit 2.5-3kg): 15 min
- Time course: Return to pre-medication level ([6]; rabbit 2.5-3kg): 120 min
- Concentration in blood, 15 min. [4, 12]: 1.45 µg/mL
- Concentration in blood, 30 min. [4, 12]: 1.53 µg/mL
- Concentration in blood, 60 min. [4, 12]: 0.80 µg/mL
- Concentration in blood, 120 min. [4, 12]: 0.40 µg/mL

SMILES: CCOC(=O)CNC(=O)C=C(C)N[C@@H](Cc1ccccc1)C(=O)[O-].[Na+] [Compound 37, N-(1-Methyl-2-ethoxycarbonylmethylcarbamoyl-vinyl)-L-phenylalanine sodium salt]
- Blood glucose response (6 I.U.) ([6]; rabbit 2.5-3kg): 20-30%
- Time course: Lowest level ([6]; rabbit 2.5-3kg): 30 to 60 min
- Time course: Onset ([6]; rabbit 2.5-3kg): 30 min
- Time course: Return to pre-medication level ([6]; rabbit 2.5-3kg): 120 min
- Concentration in blood, 15 min. [2, 13]: 1.50 µg/mL
- Concentration in blood, 30 min. [2, 13]: 1.28 µg/mL
- Concentration in blood, 60 min. [2, 13]: 0.87 µg/mL
- Concentration in blood, 120 min. [2, 13]: 0.44 µg/mL
